Test results: patent US20080234233A1, “MEDICAMENT FOR TREATMENT OF NEURODEGENERATIVE DISEASES” (INSTITUTE OF MEDICINAL MOLECULAR DESIGN INC., priority 2002, published 2008)

System: NF-κ B activation
Experiment: Inhibitory activity of NF-κB activation, luciferase reporter assay under TNF-α stimulation in HepG2
Type: cell-based, human
Conditions: HepG2, TNF-α 40 ng/ml, 4 hours; for inhibition at 1 µg/mL / inhibition at 10 µg/mL: Homo sapiens, read-out: Inhibitory rate against NF-κB activation (%)
Experimental: Measurement of Inhibitory Activity of NF-κB activation
Using a transfection reagent (Effectene; QIAGEN), the human hepatoma cell strain HepG2 was transfected with a plasmid (pNF κ B-Luc Reporter Plasmid; […]) integrated with an oligonucleotide having five tandem copies of NF-κ B binding sequences([…]) on a upstream region of firefly luciferase gene(Luc) according to the QIAGEN's protocol, and the cells were incubated for 6 to 24 hours. After addition of TNF-α (40 ng/ml) in the presence or absence of a test compound, the cells were incubated for 4 hours, and intracellular luciferase activity was measured by using PicaGene LT (TOYO INK MFG Co., Ltd.) and a chemical luminescence measurement apparatus ([…]luor Plus; TECAN). The inhibitory ratio was measured as a ratio relative to the value of the luciferase activity in the absence of the test compound.

Compound: O=C(Nc1cc(C(F)(F)F)cc(C(F)(F)F)c1)c1cc(-n2cccc2)ccc1O [compound 27]
- Inhibitory rate against NF-κB activation (%) (Drug concentration at 1 μg/mL): 93.8%
- Inhibitory rate against NF-κB activation (%) (Drug concentration at 10 μg/mL): 97.9%

Compound: O=C(Nc1cc(C(F)(F)F)cc(C(F)(F)F)c1)c1cc(-c2cccs2)ccc1O [compound 28]
- Inhibitory rate against NF-κB activation (%) (Drug concentration at 1 μg/mL): 79.5%
- Inhibitory rate against NF-κB activation (%) (Drug concentration at 10 μg/mL): 97.8%

Compound: Cc1nc(-c2ccc(O)c(C(=O)Nc3cc(C(F)(F)F)cc(C(F)(F)F)c3)c2)cs1 [compound 30, N-[3,5-Bis(trifluoromethyl)phenyl]-2-hydroxy-5-(2-methylthiazol-4-yl)benzamide]
- inhibition at 1 µg/mL (Drug concentration at 1 μg/mL): 82.1%
- inhibition at 10 µg/mL (Drug concentration at 10 μg/mL): 95.3%

Compound: O=C(Nc1cc(C(F)(F)F)cc(C(F)(F)F)c1)c1cc(-c2ccccn2)ccc1O [compound 32, N-[3,5-Bis(trifluoromethyl)phenyl]-2-hydroxy-5-(pyridin-2-yl)benzamide]
- inhibition at 1 µg/mL (Drug concentration at 1 μg/mL): 90.4%
- inhibition at 10 µg/mL (Drug concentration at 10 μg/mL): 99%

Compound: COc1ccc(O)c(C(=O)Nc2cc(C(F)(F)F)cc(C(F)(F)F)c2)c1 [compound 33]
- Inhibitory rate against NF-κB activation (%) (Drug concentration at 1 μg/mL): 30.7%
- Inhibitory rate against NF-κB activation (%) (Drug concentration at 10 μg/mL): 97.0%

Compound: CC(C)C(=O)c1ccc(O)c(C(=O)Nc2cc(C(F)(F)F)cc(C(F)(F)F)c2)c1 [compound 34, N-[3,5-Bis(trifluoromethyl)phenyl]-2-hydroxy-5-isobutyrylbenzamide]
- inhibition at 1 µg/mL (Drug concentration at 1 μg/mL): 90.7%
- inhibition at 10 µg/mL (Drug concentration at 10 μg/mL): 98.7%

Compound: COC(=O)c1ccc(O)c(C(=O)Nc2cc(C(F)(F)F)cc(C(F)(F)F)c2)c1 [compound 35, N-[3,5-bis(trifluoromethyl)phenyl]-4-hydroxyisophthalamic acid methyl ester]
- inhibition at 1 µg/mL (Drug concentration at 1 μg/mL): 88.2%
- inhibition at 10 µg/mL (Drug concentration at 10 μg/mL): 96.4%

Compound: O=C(Nc1cc(C(F)(F)F)cc(C(F)(F)F)c1)c1ccc(O)c(C(=O)Nc2cc(C(F)(F)F)cc(C(F)(F)F)c2)c1 [compound 37]
- Inhibitory rate against NF-κB activation (%) (Drug concentration at 10 μg/mL): 94.5%

Compound: CN(C)C(=O)c1ccc(O)c(C(=O)Nc2cc(C(F)(F)F)cc(C(F)(F)F)c2)c1 [compound 38, N^3-[3,5-bis(trifluoromethyl)phenyl]-4-hydroxy-N^1,N^1-dimethylisophthalamide]
- inhibition at 1 µg/mL (Drug concentration at 1 μg/mL): 16%
- inhibition at 10 µg/mL (Drug concentration at 10 μg/mL): 87.1%

Compound: O=C(Nc1cc(C(F)(F)F)cc(C(F)(F)F)c1)c1cc(C(=O)N2CCCCC2)ccc1O [compound 39, N-[3,5-Bis(trifluoromethyl)phenyl]-2-hydroxy-5-(piperidine-1-carbonyl)benzamide]
- inhibition at 1 µg/mL (Drug concentration at 1 μg/mL): 23.7%
- inhibition at 10 µg/mL (Drug concentration at 10 μg/mL): 82.2%

Compound: CN(C)S(=O)(=O)c1ccc(O)c(C(=O)Nc2cc(C(F)(F)F)cc(C(F)(F)F)c2)c1 [compound 41, N-[3,5-Bis(trifluoromethyl)phenyl]-5-dimethylsufamoyl-2-hydroxybenzamide]
- Inhibitory rate against NF-κB activation (%) (Drug concentration at 1 μg/mL): 42.2%
- Inhibitory rate against NF-κB activation (%) (Drug concentration at 10 μg/mL): 95.9%

Compound: O=C(Nc1cc(C(F)(F)F)cc(C(F)(F)F)c1)c1cc(S(=O)(=O)n2cccc2)ccc1O [compound 42, N-[3,5-Bis(trifluoromethyl)phenyl]-2-hydroxy-5-(pyrrole-1-sulfonyl)benzamide]
- inhibition at 1 µg/mL (Drug concentration at 1 μg/mL): 84.4%
- inhibition at 10 µg/mL (Drug concentration at 10 μg/mL): 98.1%

Compound: CN(C)c1ccc(O)c(C(=O)Nc2cc(C(F)(F)F)cc(C(F)(F)F)c2)c1 [compound 44]
- Inhibitory rate against NF-κB activation (%) (Drug concentration at 10 μg/mL): 67.5%

Compound: O=C(Nc1ccc(O)c(C(=O)Nc2cc(C(F)(F)F)cc(C(F)(F)F)c2)c1)c1ccccc1 [compound 45]
- Inhibitory rate against NF-κB activation (%) (Drug concentration at 10 μg/mL): 63.4%

Compound: O=C(Nc1ccccc1)Nc1ccc(O)c(C(=O)Nc2cc(C(F)(F)F)cc(C(F)(F)F)c2)c1 [compound 46]
- Inhibitory rate against NF-κB activation (%) (Drug concentration at 1 μg/mL): 20.5%
- Inhibitory rate against NF-κB activation (%) (Drug concentration at 10 μg/mL): 88.4%

Compound: O=C(Nc1cc(C(F)(F)F)cc(C(F)(F)F)c1)c1cc(NC(=S)Nc2ccccc2)ccc1O [compound 47]
- Inhibitory rate against NF-κB activation (%) (Drug concentration at 1 μg/mL): 51.8%
- Inhibitory rate against NF-κB activation (%) (Drug concentration at 10 μg/mL): 97.2%

Compound: O=C(Nc1cc(C(F)(F)F)cc(C(F)(F)F)c1)c1cc(N=Nc2ccc([N+](=O)[O-])cc2)ccc1O [compound 48]
- Inhibitory rate against NF-κB activation (%) (Drug concentration at 1 μg/mL): 96.2%
- Inhibitory rate against NF-κB activation (%) (Drug concentration at 10 μg/mL): 98.7%

Compound: O=C(Nc1cc(C(F)(F)F)cc(C(F)(F)F)c1)c1cc(N=Nc2ccc(S(=O)(=O)Nc3ccccn3)cc2)ccc1O [compound 49]
- Inhibitory rate against NF-κB activation (%) (Drug concentration at 1 μg/mL): 19.4%
- Inhibitory rate against NF-κB activation (%) (Drug concentration at 10 μg/mL): 89.1%

Compound: Cc1ccc(C(=O)Nc2cc(C(F)(F)F)cc(C(F)(F)F)c2)c(O)c1 [compound 53]
- Inhibitory rate against NF-κB activation (%) (Drug concentration at 1 μg/mL): 93.3%
- Inhibitory rate against NF-κB activation (%) (Drug concentration at 10 μg/mL): 94.5%

Compound: O=C(Nc1cc(C(F)(F)F)cc(C(F)(F)F)c1)c1cc(Br)c(O)cc1O [compound 54]
- Inhibitory rate against NF-κB activation (%) (Drug concentration at 10 μg/mL): 86.5%

Compound: O=C(Nc1cc(C(F)(F)F)cc(C(F)(F)F)c1)c1ccc(O)cc1O [compound 55]
- Inhibitory rate against NF-κB activation (%) (Drug concentration at 1 μg/mL): 10.8%
- Inhibitory rate against NF-κB activation (%) (Drug concentration at 10 μg/mL): 88.6%
